Experimental findings from ChEMBL document CHEMBL1159041, “A study of the effects of substituents on the selectivity of the binding of N-arylaminomethylene malonate inhibitors to DHODH” (Bioorg Med Chem Lett, 2010) are described below.

Usually inhibition stands for how much of the control response was suppressed.

Each structure is given as a SMILES string.

The target in experiment [1] is Dihydroorotate dehydrogenase (quinone), mitochondrial (Homo sapiens) (UniProt Q02127). In words: Inhibition of human DHODH at 50 uM.
The target of experiment [2] is T1, Dihydroorotate dehydrogenase (Plasmodium falciparum) (UniProt Q54A96).
T1 sequence (whole entry): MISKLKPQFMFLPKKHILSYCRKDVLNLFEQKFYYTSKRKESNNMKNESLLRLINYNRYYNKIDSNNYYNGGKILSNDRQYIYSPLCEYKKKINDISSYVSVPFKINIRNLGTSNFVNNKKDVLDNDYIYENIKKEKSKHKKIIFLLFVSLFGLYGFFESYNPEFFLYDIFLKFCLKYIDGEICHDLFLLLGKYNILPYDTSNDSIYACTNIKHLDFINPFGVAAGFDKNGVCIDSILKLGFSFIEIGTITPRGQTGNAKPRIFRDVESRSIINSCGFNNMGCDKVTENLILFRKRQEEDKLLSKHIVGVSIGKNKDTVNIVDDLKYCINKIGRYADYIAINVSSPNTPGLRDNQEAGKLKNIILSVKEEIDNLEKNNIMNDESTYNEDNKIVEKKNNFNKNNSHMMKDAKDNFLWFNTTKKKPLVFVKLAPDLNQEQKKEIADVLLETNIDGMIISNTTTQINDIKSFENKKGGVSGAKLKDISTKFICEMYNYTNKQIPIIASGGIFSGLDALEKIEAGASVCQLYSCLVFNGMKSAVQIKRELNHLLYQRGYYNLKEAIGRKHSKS
In words: Inhibition of Plasmodium falciparum DHODH at 50 uM.

Dihydroorotate dehydrogenase (quinone), mitochondrial (Homo sapiens), sequence (Q02127 whole entry): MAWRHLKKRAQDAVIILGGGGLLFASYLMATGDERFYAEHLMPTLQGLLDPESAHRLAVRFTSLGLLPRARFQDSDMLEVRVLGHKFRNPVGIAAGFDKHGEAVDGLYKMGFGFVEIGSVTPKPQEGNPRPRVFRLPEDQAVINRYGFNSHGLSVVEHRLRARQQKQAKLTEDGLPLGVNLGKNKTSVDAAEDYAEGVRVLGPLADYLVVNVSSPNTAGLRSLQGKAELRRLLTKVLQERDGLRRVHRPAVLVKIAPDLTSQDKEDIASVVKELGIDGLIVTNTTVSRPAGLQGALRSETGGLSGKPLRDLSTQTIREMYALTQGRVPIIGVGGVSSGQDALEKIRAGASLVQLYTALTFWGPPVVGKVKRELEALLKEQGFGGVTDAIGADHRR

Take `CCOC(=O)C(=CNc1cccc(C(=O)OCC)c1)C(=O)OCC`: the inhibition is 5% in experiment [1] and 0% in experiment [2].

In the case of `CCOC(=O)c1cc(NC=C2C(=O)OC(C)(C)OC2=O)ccc1Cl`, the inhibition in experiment [1] was found to be 5%; in experiment [2] it was 0%.

With `CCOC(=O)C(=CNc1cccc(C(=O)O)c1)C(=O)OCC`, the inhibition in experiment [1] was found to be 33%; in experiment [2], 54%.

For `CCOC(=O)/C(C#N)=C\Nc1ccc(C(=O)OCC)cc1`, the inhibition in experiment [1] and in experiment [2] was 2% each time.

Turning to `CCOC(=O)/C(C#N)=C\Nc1ccc(C(=O)O)cc1`, the values for the inhibition in experiment [1] and in experiment [2] were 29% and 0%, respectively.

Turning to `CCOC(=O)/C(C#N)=C\Nc1cccc(C(=O)O)c1`, the inhibition was determined as 23% in experiment [1] and 0% in experiment [2].

For `CCOC(=O)/C(C#N)=C\Nc1ccc(Cl)c(C(=O)OCC)c1`, the inhibition was 14% in experiment [1] and 24% in experiment [2].

For the compound `CCOC(=O)/C(C#N)=C\Nc1ccc(C(=O)O)c(Cl)c1`, the inhibition was determined as 39% in experiment [1] and 33% in experiment [2].

For the compound `CCOC(=O)C(=CNc1ccc(C(=O)O)cc1)C(=O)OCC`, the inhibition came out at 37% in experiment [1] and 43% in experiment [2].

For the compound `CCOC(=O)/C(C#N)=C\Nc1cccc(C(=O)OCC)c1`, the inhibition is 2% in experiment [1] and 23% in experiment [2].

Take `CC1(C)OC(=O)C(=CNc2ccc(C(=O)O)c(Cl)c2)C(=O)O1`: the inhibition in experiment [1] was found to be 21%; in experiment [2], 41%.

With `CCOC(=O)C(=CNc1ccc(Cl)c(C(=O)O)c1)C(=O)OCC`, the inhibition came out at 39% in experiment [1] and 37% in experiment [2].

Regarding `CCOC(=O)/C(C#N)=C\Nc1ccc(C(=O)OCC)c(Cl)c1`, the inhibition was 12% in experiment [1] and 66% in experiment [2].

`CC1(C)OC(=O)C(=CNc2ccc(Cl)c(C(=O)O)c2)C(=O)O1`: the inhibition in experiment [1] was 21%; in experiment [2], 50%.

Regarding `CCOC(=O)/C(C#N)=C\Nc1ccc(Cl)c(C(=O)O)c1`, the inhibition in experiment [1] came to 45%; in experiment [2], 44%.

Regarding `CC1(C)OC(=O)C(=CNc2cccc(C(=O)O)c2)C(=O)O1`, the results for the inhibition in experiment [1] and in experiment [2] were 27% and 25%, respectively.

For the compound `CCOC(=O)C(=CNc1ccc(C(=O)OCC)c(Cl)c1)C(=O)OCC`, the inhibition in experiment [1] was 8%; in experiment [2], 60%.

In the case of `CCOC(=O)C(=CNc1ccc(C(=O)OCC)cc1)C(=O)OCC`, the inhibition was found to be 4% in experiment [1] and 15% in experiment [2].

Turning to `CC1(C)OC(=O)C(=CNc2ccc(C(=O)O)cc2)C(=O)O1`, the inhibition in experiment [1] was determined as 32%; in experiment [2] it was 28%.

On to `CCOC(=O)c1ccc(NC=C2C(=O)OC(C)(C)OC2=O)cc1`, for which the inhibition in experiment [1] was determined as 3%; in experiment [2], 0%.

As to `CCOC(=O)C(=CNc1ccc(Cl)c(C(=O)OCC)c1)C(=O)OCC`, the inhibition in experiment [1] was found to be 16%; in experiment [2], 39%.

Regarding `CCOC(=O)c1cccc(NC=C2C(=O)OC(C)(C)OC2=O)c1`, the inhibition in experiment [1] amounted to 1%; in experiment [2], 0%.

In the case of `CCOC(=O)c1ccc(NC=C2C(=O)OC(C)(C)OC2=O)cc1Cl`, the inhibition came to 0% in experiment [1] and 12% in experiment [2].
